According to publication PMC8274846, “Biogenic nanoporous silicon carrier improves the efficacy of buparvaquone against resistant visceral leishmaniasis” (PLoS Neglected Tropical Diseases, 2021):

Tests used:
[1] = system: axenic L.donovani amastigotes, wild-type AG83; assay: Antileishmanial activity against axenic amastigotes, wild-type AG83; format: cell-based
Protocol: (§1) L. donovani AG83 (MHOM/IN/83/AG83) and GE1 (MHOM/IN/80/GE1F8R) promastigotes were routinely grown in medium 199 supplemented with 10% heat-inactivated fetal bovine serum, 2 mM L-glutamine, 20 mM HEPES, 100 U/mL penicillin, and 100 μg/mL streptomycin at 25°C. L. donovani amastigote forms were grown and maintained as described previously. Axenic amastigote forms were derived from promastigote forms by culturing them in MMA/20 (medium for axenic amastigote) at pH 5.5 [22]. Axenically grown amastigotes were maintained by sub-culture of 10^5 parasites/ml repeated every fifth day under experimental conditions of 37°C temperature and 5% CO2 environment.
(§2) The antileishmanial activity of the drug specimens (BPQ+NP, BPQ, SSG, AmB, PMM, and MF) against the axenic amastigotes were evaluated based on the IC50 value, which is the concentration of the specimen required to kill 50% of the parasites. The parasites were first seeded into 96-well plates at a density of 1x10^5 amastigotes/well in 200 μL medium. Then, 10 μL of the drug candidates at various concentrations were added and the final volume was adjusted to […] medium. The number of amastigotes in the wells treated with each specimen were compared to those in the untreated control wells.
(§3) Microscopic examinations were performed in duplicates with various concentrations of pure drugs or buparvaquone-loaded nanoparticles and also for control wells. The amastigotes cells were counted for all cases using a hemocytometer. The mean of the control wells was considered as 100% survival. The counts in the treated wells at various concentrations were converted into percentages. Giemsa-stained slides of the macrophages infected with amastigotes were observed under a light microscope. Then the numbers of amastigotes and infected macrophages per 100 cells were counted for each slide. The percentage (%) of inhibition was calculated by using the equation %ofinhibition=C−T/C×100, (2) where C is the number of amastigotes/infected macrophages per 100 cells in the control well and T is the number of amastigotes/infected macrophages per 100 cells in the drug-treated well.
(§4) Origin version 6.1 software was used to calculate IC50 and CC50 values by plotting a graph of the percentage of inhibition at various concentrations of all the observations.

[2] = system: axenic L.donovani amastigotes, AG83-R, PMM (PMM resistant strain generated from AG83); assay: microbe, parasite or virus in culture; format: cell-based
Protocol: as §1
(§5) SSG and PMM resistant L. donovani amastigotes were generated by using the methods described previously. […] The cultures were stabilized for three subcultures. Then, the drug concentration was increased until the cell population decreased approximately to 20% for each batch. Finally, when 90% cell population of the initial count was reduced, the phenotype generated was plated on medium 199 agar plates containing the same drug concentration, and a single colony was picked for culture in medium 199 liquid media at the same drug concentration. The cultured promastigotes are converted into amastigotes as described above. Drug pressure was withdrawn, and stability was checked at one, two, and four months. SSG and PMM resistant phenotype clones were labeled as AG83-R,SSG and AG83-R, PMM, respectively.
as §2, §3, §4

[3] = system: axenic L.donovani amastigotes, AG83-R, SSG (SSG resistant strain generated from AG83); assay: microbe, parasite or virus in culture; format: cell-based
Protocol: as §1, §5, §2, §3, §4

[4] = Cytotoxicity studies (CC50) on peritoneal macrophages; format: cell-based, BALB/c mice; details: BALB/c, mouse, resident peritoneal macrophages, 48 h exposure, mean ± σ, n = 3
Protocol: (§6) Resident peritoneal macrophages were isolated from BALB/c mice. For the isolation, 1.5 mL of sterile thioglycolate medium was injected into the peritoneal cavity to induce non-infectious inflammation. Animals were sacrificed after 5 days, and peritoneal exudates were harvested by intraperitoneal lavage. Cold RPMI (6 mL) was injected into the peritoneal cavity. After 10 min, the injected fluid was withdrawn by the same syringe. From each animal, approximately 3-4 mL of medium was recovered. After centrifugation at 200 g for 15 min, macrophages were collected. […] The cytotoxicity of the drug specimen was evaluated by the CC50 value, which is the concentration required to kill 50% of the host cell population. Macrophages were first isolated from peritoneal lavage as described above. The cells were seeded into 96-well plates at 1x10^6 cells/mL in 200 μL of RPMI-1640 supplemented with 10% FCS, 20 mM L-glutamine, 16 mM NaHCO3, penicillin (50 U/mL) and streptomycin (50 μg/ mL) at 37°C in 5% CO2 for 4 h for adherence. To remove the non-adherent cells, each plate was washed two times with phosphate buffer saline (pH 7.2). […] Microscopic examinations were performed in duplicates with various concentrations of pure drugs or buparvaquone-loaded nanoparticles and also for control wells. The amastigotes cells were counted for all cases using a hemocytometer. The mean of the control wells was considered as 100% survival. The counts in the treated wells at various concentrations were converted into percentages. Giemsa-stained slides of the macrophages infected with amastigotes were observed under a light microscope. Then the numbers of amastigotes and infected macrophages per 100 cells were counted for each slide. The percentage (%) of inhibition was calculated by using the equation %[…]×100, (2) where C is the number of amastigotes/infected macrophages per 100 cells in the control well and T is the number of amastigotes/infected macrophages per 100 cells in the drug-treated well.

[5] = system: resident peritoneal macrophages; assay: as above; format: cell-based, BALB/c mice; details: 48 h exposure, mean ± σ, n = 3, read-out: CC50
Protocol: as §6

[6] = system: wild-type AG83 L. donovani amastigotes in spleen; assay: Leishman-Donovan Unit (LDU) assay in infected mice; format: in vivo, BALB/c mice
Protocol: Spleen smears were stained with Giemsa to confirm infection. The infected animals were divided into three groups consisting 4-5 animals per group. The groups were classified as the infected control group, BPQ treated group and BPQ+NP treated group. […] The infected control group was injected an equal volume of PBS during the entire dosing period. […] After that spleen impression smears were prepared on glass slides and stained with Giemsa to analyze infected visceral organ (spleen) microscopically. The parasite burdens were determined by evaluating the LDU values, which were calculated by multiplying the number of amastigotes counted per 500 nuclei with the spleen weight in mg.

peritoneal macrophages = system: peritoneal macrophages; parameters: method as in earlier work; details: ref 32 (Reimao et al.); cited from earlier work
[7] = IC50 against drug resistant strain / IC50 against wild-type strain (AG83), axenic

## CC(C)(C)[C@H]1CC[C@H](CC2=C(O)C(=O)c3ccccc3C2=O)CC1 [BPQ, Buparvaquone]
[1]; Leishmania donovani, axenic amastigotes, mean ± σ, n = 4
  IC50: 3.4 ± 0.3 µM
[1]; wild-type AG83
  Fold higher axenic IC50 of pure BPQ than BPQ+NP: 3 fold
[2]; AG83-R, PMM
  Fold higher axenic IC50 of pure BPQ than BPQ+NP: 7 fold
[2]; [7]
  Resistance index (RI), AG83-R, PMM: 2.1 ± 1.5
[2]; Leishmania donovani, read-out: Axenic IC50, AG83-R, PMM
  IC50: 7.1 ± 0.8 µM
[3]; AG83-R, SSG
  Fold higher axenic IC50 of pure BPQ than BPQ+NP: 8 fold
[3]; [7]
  Resistance index (RI), AG83-R, SSG: 2.4 ± 1.2
[3]; Leishmania donovani, read-out: Axenic IC50, AG83-R, SSG
  IC50: 8.1 ± 0.8 µM
[4]
  CC50 at 48 h: > 300 µM
[5]
  CC50: 330 ± 30 µM
[6]; 1 mg/kg i.p. for 5 consecutive days
  Fold reduction of amastigote burden in spleen compared with the control group: 20 fold
[6]; infected BALB/c mice, 1 mg/kg i.p. for 5 consecutive days, day 7 post-treatment, n = 5
  Spleen wt.: 100 ± 10 mg
[6]; spleen of infected mice, intraperitoneal, corresponding doses
  Suppression / inhibition of parasite burden in vivo (summary statement): 50%
[6]; spleen, 1 mg/kg i.p. for 5 consecutive days
  LDU (Leishman Donovan Unit = number of amastigotes per 500 nuclei × spleen weight in mg): 2 ± 1 × 10^4
[6]; spleen, 1 mg/kg i.p. for 5 consecutive days, day 7 post-treatment
  Amastigotes per 500 nuclei: 200 ± 20
Peritoneal macrophages
  CC50: > 230 µM
